From publication PMC7763995 (Molecules, 2020)
Where two headings read alike, the source gives them in different places.

How the values were obtained:
Porcine liver CES = assay: In vitro CES inhibition, 4-NPA substrate; type: biochemical; conditions: compound concentration 20 µM; n.a. = not active
Description: (§1) Measurements were performed with a FLUOStar Optima microplate reader (BMG Labtech, Ortenberg, Germany). Compounds were dissolved in DMSO, the incubation mixture contained 2% solvent.

[1] = ABTS radical cation scavenging activity assay; conditions: for IC50 / ABTS^•+-Scavenging Activity, TEAC: 1 h incubation; for ABTS^•+-Scavenging Activity, TEAC: ratio of slopes test compound/Trolox
Description: Radical scavenging activity of the compounds was assessed using the ABTS radical decolorization assay with some modifications. ABTS was purchased from Tokyo Chemical Industry Co., Ltd. (Tokyo, Japan), potassium persulfate (dipotassium peroxodisulfate), Trolox (6-hydroxy-2,5,7,8-tetramethychroman-2-carboxylic acid), and HPLC-grade ethanol were obtained from Sigma-Aldrich. Aqueous solutions were prepared using deionized water.
The solution of cation radical ABTS^•+ was produced by incubation of ABTS with potassium persulfate in deionized water for 12–16 h at room temperature in the dark. Radical scavenging capacity of the compounds was analyzed by mixing 10 μL of compound with 240 μL of ABTS^•+ working solution in ethanol (100 μM final concentration). The reaction was monitored for an hour with an interval of 5–10 min. Data are given for 1 h of incubation of compounds with ABTS^•+. The reduction in absorbance was measured spectrophotometrically at 734 nm using a xMark microplate UV/VIS microplate spectrophotometer (Bio-Rad, Hercules, CA, USA).
Ethanol blanks were run in each assay. Values were obtained from three replicates of each sample and three independent experiments. Standard antioxidants Trolox and BHT were used as reference compounds.
Antioxidant capacity as Trolox equivalent (TEAC) values was determined as the ratio between the slopes obtained from the linear correlation of the ABTS radical absorbance with the concentrations of tested compounds and Trolox. […] The compounds were tested in the concentration range of 0.1–100 µM.

EeAChE PAS = target: T1, EeAChE PAS (Electrophorus electricus, UniProt O42275); type: binding; conditions: compound concentration 20 µM
T1 construct: Electric eel AChE (EeAChE, type VI-S, lyophilized powder); purchased Sigma-Aldrich type VI-S; host or cells: electric eel
Description: Electric eel AChE (EeAChE, type VI-S, lyophilized powder, Sigma-Aldrich, Saint Louis, MO, USA) was used owing to its high degree of purification, high activity, and lower cost compared to human AChE.
The blank contained propidium iodide of the same concentration in 1 mM Tris-HCl buffer pH 8.0. The measurements were carried out in triplicate on a FLUOStar Optima microplate reader, and the results were calculated by formula (1):% Displacement = 100 − (IFAChE+ Propidium + inhibitor / IFAChE + Propidium) × 100(1) where IFAChE + Propidium is the fluorescence intensity of the propidium associated with AChE in the absence of the test compound (taken as 100%), and IFAChE + Propidium + inhibitor is the fluorescence intensity of the propidium associated with AChE in the presence of the test compound.

mouse brain homogenate [2] = assay: TBARS assay, spontaneous lipid peroxidation in mouse brain homogenate; conditions: read-out: Inhibition of Spontaneous Lipid Peroxidation in Mice Brain Homogenate, TBARS Assay, IC50
Description: (§2) The work was carried out in accordance with the EU Directive 2010/63/EU. Hybrid BDF1 mice (about 6 months old) were sacrificed by decapitation. Each brain was rapidly excised, frozen in liquid nitrogen, and stored at −80°C until use. The brains were thawed and homogenized using a Wisd WiseTis HG-15D homogenizer for 2 min in a buffer (0.01 M PBS, pH 7.4 or 0.1 M Tris-HCl, pH 7.4). Protein concentrations were determined by the Lowry method.
The procedure was performed in accordance with the method of Ohkawa et al. with minor modifications. Briefly, mouse brain homogenate (protein concentration 1 mg/mL) in PBS (0.1 M, pH 7.4) was incubated for 30 min at 37°C with tested conjugates, and the reaction was terminated by addition of 0.4 mL of 17% (w/v) trichloroacetic acid (Sigma-Aldrich). Following centrifugation for 20 min at 1300× g, 0.5 mL of 0.8% (w/v) of TBA (Sigma-Aldrich) was added to 1 mL of supernatant, heated for 30 min at 95°C and then cooled to RT. The optical density of the TBARS, which corresponds to the produced MDA, was measured at 532 nm against a blank using an Agilent Cary 60 UV-Vis spectrophotometer (Agilent, Santa Clara, CA, USA). The MDA concentration was calculated using an extinction coefficient of 1.56 × 10^5 M^−1cm^−1. Trolox and BHT were used as reference antioxidants. Compounds were dissolved in DMSO (Sigma-Aldrich) and tested in a concentration range 0.01–100 μM. All compounds were examined at least in triplicate.

[3] = FRAP (ferric reducing antioxidant power) assay; conditions: 20 µM, 1 h incubation; ratio of concentrations of Trolox and test compound with same effect
Description: The FRAP (ferric reducing antioxidant power) assay proposed by Benzie and Strain [80, 81] was modified to be performed in 96-well microplates. The FRAP reagent contained 2.5 mL of 10 mM TPTZ (2,4,6-tris(2-pyridyl)-s-triazine (Sigma-Aldrich) solution in 40 mM HCl, 2.5 mL of 20 mM FeCl3 (Sigma-Aldrich) in distilled water and 25 mL of 0.3 M acetate buffer (pH 3.6). In 96-well microplates, 10 µL aliquots of the substance under investigation (compounds 7, 8 or reference substance) dissolved in DMSO (0.5 mM) were placed in quadruplicate. The FRAP reagent (240 µL) freshly prepared and warmed to 37°C was added to three of these samples, while the same volume of acetate buffer was added to the fourth one (blank). Consequently, the concentration of the substance in a plate was 20 µM. The absorbance at 600 nm was monitored spectrophotometrically with a FLUOStar OPTIMA microplate reader at 37°C for an hour with an interval of 5–10 min. Data in Table 2 are given for 1 h of incubation of compounds with FRAP reagent. The absorbances of the blanks and those of the mixture of 240 µL FRAP reagent plus 10 µL DMSO were subtracted from the absorbances of the samples at each time interval to calculate the absorbance change. Standard antioxidants Trolox and BHT dissolved in DMSO and analyzed as described above were used as reference compounds. A calibration curve with linear formula y = 0.03x (R^2 = 0.998, p < 0.0001) was obtained for Trolox solution in DMSO in the range 2.5–100 µM and the results were expressed as FRAP units (the values calculated as the ratio of the concentrations of Trolox and the test compound resulting in the same effect.)

Human erythrocyte AChE = target: T2, Human erythrocyte AChE (Homo sapiens, UniProt P22303); assay: biochemical
T2 construct: AChE from human erythrocytes was used; purchased Sigma-Aldrich; host or cells: human erythrocytes
Description: as §1

Equine serum BChE = target: T3, Equine serum BChE (Equus caballus, UniProt P81908); assay: biochemical; conditions: for Selectivity for BChE: IC50 AChE / IC50 BChE
T3 construct: equine serum BChE; purchased Sigma-Aldrich; host or cells: equine serum
Description: as §1

mouse brain homogenate [4] = assay: Luminol chemiluminescence assay in mouse brain homogenate (TBHP-initiated); conditions: compound concentration 20 µM; mice brain homogenate
Description: as §2
Luminol-dependent chemiluminescence produced by mouse brain homogenates was measured using a 1250 Luminometer (LKB Wallac, Turku, Finland) according to the assay by Di Meo et al. with minor modifications. The reaction mixture consisted of mouse brain homogenate (protein concentration 0.1 mg/mL) in 0.1 M Tris-HCl (Sigma-Aldrich), pH 7.4, luminol (Sigma-Aldrich) (0.05 mM), TBHP (Sigma-Aldrich) (0.073 M) and tested compounds at a concentration of 20 μM. This was placed in a light-proof luminometer chamber and the background reading was recorded. All measurements were carried out at 37°C. The gain control was set to give a reading of 10 mV using a built-in standard. The free radical content in mouse brain homogenate was evaluated by the change in the light sum (the area under the kinetic curve of luminescence intensity for the entire luminescence time). All compounds were examined at least in triplicate. The effects of tested compounds were measured as the percentage decrease in the light sum relative to the control (a sample with no compound added).

[5] = mean ± SEM, n = 3, n.a. = not active, read-out: Human Erythrocyte AChE, IC50
[6] = mean ± SEM, n = 3, n.a. = not active, read-out: Equine Serum BChE, IC50

T3 sequence (P81908 whole entry): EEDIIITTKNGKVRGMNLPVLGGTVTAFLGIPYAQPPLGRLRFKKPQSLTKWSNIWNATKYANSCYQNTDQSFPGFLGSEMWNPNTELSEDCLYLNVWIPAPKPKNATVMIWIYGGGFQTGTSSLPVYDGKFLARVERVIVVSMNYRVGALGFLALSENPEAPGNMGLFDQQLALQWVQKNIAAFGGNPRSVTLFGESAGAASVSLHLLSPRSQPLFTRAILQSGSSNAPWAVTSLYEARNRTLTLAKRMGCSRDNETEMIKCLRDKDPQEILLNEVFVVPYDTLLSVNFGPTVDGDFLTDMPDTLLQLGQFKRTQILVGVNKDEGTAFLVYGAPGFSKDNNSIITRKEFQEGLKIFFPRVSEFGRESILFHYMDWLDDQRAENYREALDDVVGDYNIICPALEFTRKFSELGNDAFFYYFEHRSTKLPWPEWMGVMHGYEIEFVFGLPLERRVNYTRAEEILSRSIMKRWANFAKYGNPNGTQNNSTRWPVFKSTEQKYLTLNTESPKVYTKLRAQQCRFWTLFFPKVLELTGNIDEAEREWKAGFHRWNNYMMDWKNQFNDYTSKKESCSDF
T1 sequence (O42275 24-633): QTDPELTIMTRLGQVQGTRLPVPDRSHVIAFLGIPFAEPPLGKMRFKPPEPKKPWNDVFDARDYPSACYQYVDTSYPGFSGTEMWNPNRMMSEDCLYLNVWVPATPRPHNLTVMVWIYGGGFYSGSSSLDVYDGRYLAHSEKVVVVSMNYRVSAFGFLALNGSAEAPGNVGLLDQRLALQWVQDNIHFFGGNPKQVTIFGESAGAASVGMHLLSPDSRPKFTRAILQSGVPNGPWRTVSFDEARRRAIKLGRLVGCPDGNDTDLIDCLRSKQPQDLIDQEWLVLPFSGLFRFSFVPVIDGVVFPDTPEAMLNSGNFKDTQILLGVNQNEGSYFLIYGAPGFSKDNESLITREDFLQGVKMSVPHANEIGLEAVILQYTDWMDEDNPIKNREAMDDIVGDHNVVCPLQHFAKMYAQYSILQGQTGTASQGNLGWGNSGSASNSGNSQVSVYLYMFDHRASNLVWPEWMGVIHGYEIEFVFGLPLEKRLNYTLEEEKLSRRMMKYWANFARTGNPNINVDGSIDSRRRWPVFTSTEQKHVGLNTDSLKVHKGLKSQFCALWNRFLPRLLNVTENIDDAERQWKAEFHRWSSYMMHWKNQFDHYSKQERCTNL
T2 sequence (P22303 32-617 isoform P22303-2 limits assumed): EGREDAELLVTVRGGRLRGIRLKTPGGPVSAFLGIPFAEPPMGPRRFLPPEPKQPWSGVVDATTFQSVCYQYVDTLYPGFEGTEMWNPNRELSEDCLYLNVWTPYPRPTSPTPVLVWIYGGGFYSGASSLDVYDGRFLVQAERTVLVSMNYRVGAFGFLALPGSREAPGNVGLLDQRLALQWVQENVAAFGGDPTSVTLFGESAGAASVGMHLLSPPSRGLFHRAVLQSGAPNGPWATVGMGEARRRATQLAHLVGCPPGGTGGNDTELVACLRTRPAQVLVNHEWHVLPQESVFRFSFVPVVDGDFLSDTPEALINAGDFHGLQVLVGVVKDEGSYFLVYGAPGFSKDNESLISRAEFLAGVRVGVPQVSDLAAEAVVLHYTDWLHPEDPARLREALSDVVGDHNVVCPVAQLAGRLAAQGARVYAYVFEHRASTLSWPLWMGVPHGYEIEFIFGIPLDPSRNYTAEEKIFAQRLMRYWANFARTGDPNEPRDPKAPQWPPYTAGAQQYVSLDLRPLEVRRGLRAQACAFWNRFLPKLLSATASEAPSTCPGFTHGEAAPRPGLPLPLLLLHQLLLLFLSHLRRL

SMILES | Porcine Liver CES, (%) inhibition (Porcine liver CES) | Time of maximum binding of the ABTS radical [1] [min] | IC50 [1] [µM] | ABTS^•+-Scavenging Activity, TEAC [1] | Displacement of Propidium from EeAChE PAS (%) (EeAChE PAS) | IC50 (mouse brain homogenate [2]) [µM] | Ferric Reducing Antioxidant Power, FRAP Units [3] | IC50 (Human erythrocyte AChE) [µM] | IC50 (Equine serum BChE) [µM] | Radical Scavenging Capacity in Luminol Chemiluminescence Assay, Luminescence Inhibition, % (mouse brain homogenate [4]) [%] | IC50 (Human erythrocyte AChE; [5]) [µM] | Selectivity for BChE (Equine serum BChE) | IC50 (Equine serum BChE; [6]) [µM]
CC(C)(C)c1cc(CNCCNc2c3c(nc4ccccc24)CCCCC3)cc(C(C)(C)C)c1O [Compound 8c, 2,6-Di-tert-butyl-4-{[2-(7,8,9,10-tetrahydro-6H-cyclohepta[b]quinolin-11-ylamino)-ethylamino]-methyl}-phenol] | 26.0 ± 1.9% | 5 | 14.1 ± 0.8 | 1.35 ± 0.04 | 13.6 ± 1.2 | 9.38 ± 0.12 | 0.80 ± 0.06 | 1.9 ± 0.16 | 0.084 ± 0.008 | 91.0 ± 0.6 | – | – | –
Cc1cc(C(C)(C)C)c(O)c(C(C)(C)C)c1 [BHT, butylated hydroxytoluene, reference compound] | – | – | 22.4 ± 1.4 | 0.98 ± 0.03 | – | 6.89 ± 0.26 | 1.76 ± 0.07 | – | – | 72.0 ± 2.6 | – | – | –
Cc1c(C)c2c(c(C)c1O)CCC(C)(C(=O)O)O2 (stereo not drawn) [Trolox, 6-hydroxy-2,5,7,8-tetramethychroman-2-carboxylic acid, reference compound] | – | – | 20.1 ± 1.2 | 1.0 | – | 91.8 ± 0.3 | 1.0 | – | – | 88.0 ± 1.0 | – | – | –
CC(C)(C)c1cc(C=NCCNc2c3c(nc4ccccc24)CCC3)cc(C(C)(C)C)c1O [Compound 7a, 2,6-Di-tert-butyl-4-{[2-(2,3-dihydro-1H-cyclopenta[b]quinolin-9-ylamino)-ethylimino]-methyl}-phenol] | 26.1 ± 0.7% | – | 22.3 ± 1.5 | – | 18.1 ± 1.6 | 19.6 ± 0.8 | 0.51 ± 0.03 | – | – | 94.0 ± 0.2 | 4.86 ± 0.01 | 2.5 | 1.92 ± 0.11
CC(C)(C)c1cc(CNCCNc2c3c(nc4ccccc24)CCC3)cc(C(C)(C)C)c1O [Compound 8a, 2,6-Di-tert-butyl-4-{[2-(2,3-dihydro-1H-cyclopenta[b]quinolin-9-ylamino)-ethylamino]-methyl}-phenol] | 19.6 ± 1.3% | 5 | 12.7 ± 1.1 | 1.39 ± 0.05 | 16.4 ± 1.4 | 6.23 ± 0.33 | 0.77 ± 0.02 | 3.5 ± 0.33 | 0.652 ± 0.005 | 95.0 ± 0.1 | – | 5.4 | –
CC(C)(C)c1cc(C=NCCNc2c3c(nc4ccccc24)CCCC3)cc(C(C)(C)C)c1O [Compound 7b, 2,6-Di-tert-butyl-4-{[2-(1,2,3,4-tetrahydro-acridin-9-ylamino)-ethylimino]-methyl}-phenol] | 28.6 ± 1.6% | – | 17.1 ± 1.4 | 1.13 ± 0.05 | 18.2 ± 1.6 | 7.21 ± 0.62 | 0.58 ± 0.03 | – | – | 95.0 ± 0.2 | 5.98 ± 0.13 | 3.7 | 1.61 ± 0.04
O=[N+]([O-])c1ccc(OP(=O)(O)Oc2ccc([N+](=O)[O-])cc2)cc1 [BNPP, bis-4-nitrophenyl phosphate, reference compound] | 92.1 ± 1.8 ^3% | – | – | – | – | – | – | – | – | – | – | – | –
